According to article PMC4869175, “Evidence that phytochrome functions as a protein kinase in plant light signalling” (Nature Communications, 2016):

Target: T1, FL-AsphyA (Avena sativa, UniProt P06593)
T1 construct: Full-length phytochrome genes of AsPHYA; made in house; host or cells: Pichia pastoris GS115
T1 sequence (P06593 1-1129): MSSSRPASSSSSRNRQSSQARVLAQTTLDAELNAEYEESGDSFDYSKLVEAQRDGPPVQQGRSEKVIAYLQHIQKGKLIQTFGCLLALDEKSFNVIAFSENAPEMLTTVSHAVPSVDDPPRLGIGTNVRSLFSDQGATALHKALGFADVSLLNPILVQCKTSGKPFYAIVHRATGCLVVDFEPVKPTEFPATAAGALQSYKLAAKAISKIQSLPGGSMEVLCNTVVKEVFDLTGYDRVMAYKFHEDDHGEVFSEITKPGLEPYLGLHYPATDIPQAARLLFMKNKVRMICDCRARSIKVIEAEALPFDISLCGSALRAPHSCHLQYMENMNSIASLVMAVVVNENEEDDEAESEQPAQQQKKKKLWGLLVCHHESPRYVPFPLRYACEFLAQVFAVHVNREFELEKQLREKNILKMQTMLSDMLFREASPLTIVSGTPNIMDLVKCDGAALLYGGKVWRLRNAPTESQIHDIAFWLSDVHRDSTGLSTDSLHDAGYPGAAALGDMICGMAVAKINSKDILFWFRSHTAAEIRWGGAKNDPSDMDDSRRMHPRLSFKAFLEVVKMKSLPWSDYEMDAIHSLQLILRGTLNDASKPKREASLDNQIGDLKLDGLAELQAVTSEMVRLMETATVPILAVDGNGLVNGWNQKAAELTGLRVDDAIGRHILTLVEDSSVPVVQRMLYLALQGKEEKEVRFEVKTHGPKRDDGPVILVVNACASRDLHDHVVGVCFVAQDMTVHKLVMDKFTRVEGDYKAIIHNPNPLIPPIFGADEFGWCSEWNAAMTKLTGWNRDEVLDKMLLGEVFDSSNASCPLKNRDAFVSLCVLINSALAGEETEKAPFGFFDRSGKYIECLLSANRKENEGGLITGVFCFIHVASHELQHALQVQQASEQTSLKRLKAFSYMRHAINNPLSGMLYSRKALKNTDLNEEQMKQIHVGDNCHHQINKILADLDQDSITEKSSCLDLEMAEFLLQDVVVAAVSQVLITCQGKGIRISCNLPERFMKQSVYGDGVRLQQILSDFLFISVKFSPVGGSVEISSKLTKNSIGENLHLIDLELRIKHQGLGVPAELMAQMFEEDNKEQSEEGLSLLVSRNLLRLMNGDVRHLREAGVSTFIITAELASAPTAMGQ
Assay: Autophosphorylation and kinase activity assays of 8-azido-ATP-labelled AsphyA
Type: biochemical
Details: Pfr form of FL-AsphyA, 8-azido-ATP labeling buffer
Procedure: For autophosphorylation assays, reaction mixtures (20 μl) contained kinase buffer (25 mM Tris-HCl, pH 7.8, 0.2 mM EDTA, 4 mM DTT and 5 mM MgCl2) and purified recombinant phytochromes (0.5–1.0 μg) in either Pr or Pfr forms. Phytochrome samples were irradiated with red or far-red light for 15 min before the start of the reaction. Because histone H1 is known to stimulate phytochrome autophosphorylation activity, the same amount of histone H1 (0.5–1.0 μg) was added to the phytochrome samples in the indicated experiments. The conditions for kinase assays were similar to those of phytochrome autophosphorylation experiments, except for addition of a substrate (0.5–1.0 μg). Reactions were started by adding 150 μM ATP containing 10 μCi of (γ-^32P) ATP and incubated at 30 °C for 1 h. […] To verify the proteins loaded, Coomassie blue protein staining and zinc-fluorescence assay were performed before drying. For quantification of the phosphorylation, dried gels were exposed to Fuji imaging plates, and the relative signals of phyA autophosphorylation and PIF3 phosphorylation by phyA were quantitated with a Typhoon FLA 7000 phosphor-imager (GE Healthcare).
Supplementary Figure 11. […] 8-azido-ATP labeled proteins were then detected using avidin-HRP. […] The band intensities were quantified using ImageJ software, and the percentages of 8-azido-ATP labeling were normalized to the 66-610 protein signals. […]

With “8-N3-ATP-biotin-long chain-hydrazone [8-azido-ATP]” the “autophosphorylation of 8-azido-ATP-labelled AsphyA” value was “little autophosphorylation” and the “kinase activity (PIF3) of 8-azido-ATP-labelled AsphyA” value was “significantly reduced kinase activity”.
